Nc1ncnc2nc[nH]c12
solubility (mole fraction)
Details | 278.15 K | 283.15 K | 288.15 K | 293.15 K | 298.15 K | 303.15 K | 308.15 K | 313.15 K | 318.15 K
in DMF | 0.00192 | 0.00205 | 0.00217 | 0.00232 | 0.00246 | 0.00262 | 0.00278 | 0.00295 | 0.00312
in DMSO | – | – | – | 0.0111 | 0.0117 | 0.0124 | 0.0131 | 0.0137 | 0.0144
in NMP | 0.0095 | 0.00971 | 0.0099 | 0.0101 | 0.0103 | 0.0105 | 0.0107 | 0.0109 | 0.0112
in propylene glycol | 0.0106 | 0.0108 | 0.0109 | 0.0111 | 0.0112 | 0.0114 | 0.0115 | 0.0117 | 0.0118
in water | 5.43e-05 | 6.88e-05 | 8.54e-05 | 0.000108 | 0.000134 | 0.000171 | 0.000216 | 0.000264 | 0.000321

From BigSolDB 2.1
